{
  "source": "patent US4261892A",
  "about": "“2,4,6-Tris-(substituted-amino)-s-triazines” (American Cyanamid Company, priority 1979, dated 1981)",
  "key": {"[1]": {"system": "Adjuvant Arthritis In Rats", "assay": "Adjuvant-induced arthritis in rats (chronic inflammation accompanied by joint destruction)", "assay_type": "in vivo, Royal Hart, Wistar strain rats", "details": "for inhibition in vivo at 0.25 mg/kg / inhibition in vivo at 0.5 mg/kg / inhibition in vivo at 2 mg/kg / inhibition in vivo at 1 mg/kg / inhibition in vivo at 18.8 mg/kg / inhibition in vivo at 37.5 mg/kg / inhibition in vivo at 75 mg/kg / inhibition in vivo at 150 mg/kg: Rattus norvegicus", "method": "Groups of three Royal Hart, Wistar strain rats weighing 200±10 grams each were injected intradermally in the right hind paw with Freund's adjuvant (dried human tubercle bacilli in a mineral oil vehicle) at a dose of 2 mg./kg. of body weight. […] On the 14th and 21st day post challenge the diameter of the injected paw (primary lesion) was measured by micrometer caliper. The volume of inflamed paws were estimated from these measurements and the results are expressed as percent inhibition of swelling as compared to controls. At the same time, the other inflamed sites, such as ears, paws and tail (secondary lesions) were observed and each rat was graded as to degree of inflammation and swelling present. The grading is based on a scale of 0 to 24 where 0 represents a complete absence of induced arthritic nodules and 24 represents the maximum degree of inflammation. The mean grade for each treated group is calculated and the effects of each compound are expressed as percent inhibition of the control grade."}, "[2]": {"system": "arthritic paw swelling / joint and bone deterioration", "details": "literature (Wong et al., Bobalick et al.); cited from earlier work"}, "[3]": {"details": "oral 0.25 mg./kg. once daily days 0-13, Day 14"}, "[4]": {"details": "oral 0.25 mg./kg. once daily days 0-13, Day 21"}, "[5]": {"details": "oral 0.5 mg./kg. once daily days 0-13, Day 14"}, "[6]": {"details": "oral 0.5 mg./kg. once daily days 0-13, Day 21"}, "[7]": {"details": "oral 1 mg./kg. once daily days 0-13, Day 14"}, "[8]": {"details": "oral 1 mg./kg. once daily days 0-13, Day 21"}, "[9]": {"details": "oral 2 mg./kg. once daily days 0-13, Day 14"}, "[10]": {"details": "oral 2 mg./kg. once daily days 0-13, Day 21"}, "[11]": {"details": "oral 18.8 mg./kg. once daily days 0-13, Day 14"}, "[12]": {"details": "oral 18.8 mg./kg. once daily days 0-13, Day 21"}, "[13]": {"details": "oral 37.5 mg./kg. once daily days 0-13, Day 14"}, "[14]": {"details": "oral 37.5 mg./kg. once daily days 0-13, Day 21"}, "[15]": {"details": "oral 75 mg./kg. once daily days 0-13, Day 14"}, "[16]": {"details": "oral 75 mg./kg. once daily days 0-13, Day 21"}, "[17]": {"details": "oral 150 mg./kg. once daily days 0-13, Day 14"}, "[18]": {"details": "oral 150 mg./kg. once daily days 0-13, Day 21"}},
  "note": "Read-outs that look alike come from different tables or passages of the source.",
  "data": [
    {"compound": "COc1ccc2c(c1)c(CC(=O)O)c(C)n2C(=O)c1ccc(Cl)cc1", "note": "[Indomethacin]", "values": [
      {"measurement": "inhibition in vivo at 0.25 mg/kg", "setting": "[1]; 336 h, oral 0.25 mg./kg. once daily days 0-13, Day 14, read-out: % Inhibition of Swelling (primary lesion) Day 14", "result": 30, "unit": "%"},
      {"measurement": "inhibition in vivo at 0.5 mg/kg", "setting": "[1]; 336 h, oral 0.5 mg./kg. once daily days 0-13, Day 14, read-out: % Inhibition of Swelling (primary lesion) Day 14", "result": 40, "unit": "%"},
      {"measurement": "inhibition in vivo at 2 mg/kg", "setting": "[1]; 336 h, oral 2 mg./kg. once daily days 0-13, Day 14, read-out: % Inhibition of Swelling (primary lesion) Day 14", "result": 51, "unit": "%"},
      {"measurement": "inhibition in vivo at 0.25 mg/kg", "setting": "[1]; 504 h, oral 0.25 mg./kg. once daily days 0-13, Day 21, read-out: % Inhibition of Swelling (primary lesion) Day 21", "result": 4, "unit": "%"},
      {"measurement": "inhibition in vivo at 0.5 mg/kg", "setting": "[1]; 504 h, oral 0.5 mg./kg. once daily days 0-13, Day 21, read-out: % Inhibition of Swelling (primary lesion) Day 21", "result": 20, "unit": "%"},
      {"measurement": "inhibition in vivo at 1 mg/kg", "setting": "[1]; 504 h, oral 1 mg./kg. once daily days 0-13, Day 21, read-out: % Inhibition of Swelling (primary lesion) Day 21", "result": 19, "unit": "%"},
      {"measurement": "inhibition in vivo at 2 mg/kg", "setting": "[1]; 504 h, oral 2 mg./kg. once daily days 0-13, Day 21, read-out: % Inhibition of Swelling (primary lesion) Day 21", "result": 24, "unit": "%"},
      {"measurement": "inhibition in vivo at 1 mg/kg", "setting": "[1]; po, 336 h, read-out: % Inhibition of Swelling (primary lesion) Day 14", "result": 46, "unit": "%"},
      {"measurement": "% Inhibition of Control Grade (secondary lesion) Day 14", "setting": "[1]; [3]", "result": 22, "unit": "%"},
      {"measurement": "Mean Weight Gain (grams) Day 14", "setting": "[1]; [3]", "result": 51, "unit": "grams"},
      {"measurement": "% Inhibition of Control Grade (secondary lesion) Day 21", "setting": "[1]; [4]", "result": 4, "unit": "%"},
      {"measurement": "Mean Weight Gain (grams) Day 21", "setting": "[1]; [4]", "result": 57, "unit": "grams"},
      {"measurement": "Dead/Treated at 21 Days", "setting": "[1]; oral 0.25 mg./kg. once daily days 0-13", "result": "0/9"},
      {"measurement": "% Inhibition of Control Grade (secondary lesion) Day 14", "setting": "[1]; [5]", "result": 25, "unit": "%"},
      {"measurement": "Mean Weight Gain (grams) Day 14", "setting": "[1]; [5]", "result": 53, "unit": "grams"},
      {"measurement": "% Inhibition of Control Grade (secondary lesion) Day 21", "setting": "[1]; [6]", "result": 17, "unit": "%"},
      {"measurement": "Mean Weight Gain (grams) Day 21", "setting": "[1]; [6]", "result": 51, "unit": "grams"},
      {"measurement": "Dead/Treated at 21 Days", "setting": "[1]; oral 0.5 mg./kg. once daily days 0-13", "result": "5/54"},
      {"measurement": "% Inhibition of Control Grade (secondary lesion) Day 14", "setting": "[1]; [7]", "result": 34, "unit": "%"},
      {"measurement": "Mean Weight Gain (grams) Day 14", "setting": "[1]; [7]", "result": 63, "unit": "grams"},
      {"measurement": "% Inhibition of Control Grade (secondary lesion) Day 21", "setting": "[1]; [8]", "result": 20, "unit": "%"},
      {"measurement": "Mean Weight Gain (grams) Day 21", "setting": "[1]; [8]", "result": 65, "unit": "grams"},
      {"measurement": "Dead/Treated at 21 Days", "setting": "[1]; oral 1 mg./kg. once daily days 0-13", "result": "9/54"},
      {"measurement": "% Inhibition of Control Grade (secondary lesion) Day 14", "setting": "[1]; [9]", "result": 38, "unit": "%"},
      {"measurement": "Mean Weight Gain (grams) Day 14", "setting": "[1]; [9]", "result": 68, "unit": "grams"},
      {"measurement": "% Inhibition of Control Grade (secondary lesion) Day 21", "setting": "[1]; [10]", "result": 25, "unit": "%"},
      {"measurement": "Mean Weight Gain (grams) Day 21", "setting": "[1]; [10]", "result": 68, "unit": "grams"},
      {"measurement": "Dead/Treated at 21 Days", "setting": "[1]; oral 2 mg./kg. once daily days 0-13", "result": "8/57"},
      {"measurement": "arthritic paw swelling", "setting": "[2]", "result": "inhibit arthritic paw swelling"},
      {"measurement": "joint and bone deterioration", "setting": "[2]", "result": "prevent joint and bone deterioration"}
    ]},
    {"compound": "CCCCC1C(=O)N(c2ccccc2)N(c2ccccc2)C1=O", "note": "[Phenylbutazone]", "values": [
      {"measurement": "inhibition in vivo at 18.8 mg/kg", "setting": "[1]; 336 h, oral 18.8 mg./kg. once daily days 0-13, Day 14, read-out: % Inhibition of Swelling (primary lesion) Day 14", "result": 31, "unit": "%"},
      {"measurement": "inhibition in vivo at 37.5 mg/kg", "setting": "[1]; 336 h, oral 37.5 mg./kg. once daily days 0-13, Day 14, read-out: % Inhibition of Swelling (primary lesion) Day 14", "result": 56, "unit": "%"},
      {"measurement": "inhibition in vivo at 75 mg/kg", "setting": "[1]; 336 h, oral 75 mg./kg. once daily days 0-13, Day 14, read-out: % Inhibition of Swelling (primary lesion) Day 14", "result": 62, "unit": "%"},
      {"measurement": "inhibition in vivo at 150 mg/kg", "setting": "[1]; 336 h, oral 150 mg./kg. once daily days 0-13, Day 14, read-out: % Inhibition of Swelling (primary lesion) Day 14", "result": 75, "unit": "%"},
      {"measurement": "inhibition in vivo at 18.8 mg/kg", "setting": "[1]; 504 h, oral 18.8 mg./kg. once daily days 0-13, Day 21, read-out: % Inhibition of Swelling (primary lesion) Day 21", "result": 7, "unit": "%"},
      {"measurement": "inhibition in vivo at 37.5 mg/kg", "setting": "[1]; 504 h, oral 37.5 mg./kg. once daily days 0-13, Day 21, read-out: % Inhibition of Swelling (primary lesion) Day 21", "result": 14, "unit": "%"},
      {"measurement": "inhibition in vivo at 75 mg/kg", "setting": "[1]; 504 h, oral 75 mg./kg. once daily days 0-13, Day 21, read-out: % Inhibition of Swelling (primary lesion) Day 21", "result": 28, "unit": "%"},
      {"measurement": "inhibition in vivo at 150 mg/kg", "setting": "[1]; 504 h, oral 150 mg./kg. once daily days 0-13, Day 21, read-out: % Inhibition of Swelling (primary lesion) Day 21", "result": 44, "unit": "%"},
      {"measurement": "% Inhibition of Control Grade (secondary lesion) Day 14", "setting": "[1]; [11]", "result": 4, "unit": "%"},
      {"measurement": "Mean Weight Gain (grams) Day 14", "setting": "[1]; [11]", "result": 50, "unit": "grams"},
      {"measurement": "% Inhibition of Control Grade (secondary lesion) Day 21", "setting": "[1]; [12]", "result": 8, "unit": "%"},
      {"measurement": "Mean Weight Gain (grams) Day 21", "setting": "[1]; [12]", "result": 45, "unit": "grams"},
      {"measurement": "Dead/Treated at 21 Days", "setting": "[1]; oral 18.8 mg./kg. once daily days 0-13", "result": "2/21"},
      {"measurement": "% Inhibition of Control Grade (secondary lesion) Day 14", "setting": "[1]; [13]", "result": 18, "unit": "%"},
      {"measurement": "Mean Weight Gain (grams) Day 14", "setting": "[1]; [13]", "result": 53, "unit": "grams"},
      {"measurement": "% Inhibition of Control Grade (secondary lesion) Day 21", "setting": "[1]; [14]", "result": 13, "unit": "%"},
      {"measurement": "Mean Weight Gain (grams) Day 21", "setting": "[1]; [14]", "result": 53, "unit": "grams"},
      {"measurement": "Dead/Treated at 21 Days", "setting": "[1]; oral 37.5 mg./kg. once daily days 0-13", "result": "5/39"},
      {"measurement": "% Inhibition of Control Grade (secondary lesion) Day 14", "setting": "[1]; [15]", "result": 27, "unit": "%"},
      {"measurement": "Mean Weight Gain (grams) Day 14", "setting": "[1]; [15]", "result": 51, "unit": "grams"},
      {"measurement": "% Inhibition of Control Grade (secondary lesion) Day 21", "setting": "[1]; [16]", "result": 15, "unit": "%"},
      {"measurement": "Mean Weight Gain (grams) Day 21", "setting": "[1]; [16]", "result": 50, "unit": "grams"},
      {"measurement": "Dead/Treated at 21 Days", "setting": "[1]; oral 75 mg./kg. once daily days 0-13", "result": "2/39"},
      {"measurement": "% Inhibition of Control Grade (secondary lesion) Day 14", "setting": "[1]; [17]", "result": 54, "unit": "%"},
      {"measurement": "Mean Weight Gain (grams) Day 14", "setting": "[1]; [17]", "result": 40, "unit": "grams"},
      {"measurement": "% Inhibition of Control Grade (secondary lesion) Day 21", "setting": "[1]; [18]", "result": 31, "unit": "%"},
      {"measurement": "Mean Weight Gain (grams) Day 21", "setting": "[1]; [18]", "result": 50, "unit": "grams"},
      {"measurement": "Dead/Treated at 21 Days", "setting": "[1]; oral 150 mg./kg. once daily days 0-13", "result": "2/27"}
    ]}
  ]
}
